This note sets out measurements from ChEMBL document CHEMBL3046853, “Synthesis, antimicrobial evaluation, ot-QSAR and mt-QSAR studies of 2-amino benzoic acid derivatives” (2012).

The structures appear in SMILES notation. The source made the active and inactive calls. The calls are words filed in the database; no cut-off is given here.

Assay [1] has as its system Escherichia coli. Briefly: Antibacterial activity against Escherichia coli after 24 hr by serial dilution technique. The format is functional.
The test system of assay [2] is Staphylococcus aureus. Briefly: Antibacterial activity against Staphylococcus aureus after 24 hr by serial dilution technique. The format is functional.
The test system of assay [3] is Aspergillus niger. Briefly: Antifungal activity against Aspergillus niger after 7 days by serial dilution technique. It is filed as functional.
For assay [4], the system named is Aspergillus niger. Briefly: Fungicidal activity against Aspergillus niger after 7 days by serial dilution technique. It is filed as functional, organism-based.
The test system of assay [5] is Candida albicans. Put plainly: Antifungal activity against Candida albicans after 2 days by serial dilution technique. The format is functional.
In assay [6] the test system is Staphylococcus aureus. Put plainly: Bactericidal activity against Staphylococcus aureus. The format is functional, organism-based.
Assay [7] relates to Bacillus subtilis. Briefly: Bactericidal activity against Bacillus subtilis. It is filed as functional, organism-based.
Assay [8] deals with Escherichia coli. Put plainly: Bactericidal activity against Escherichia coli. It is filed as functional, organism-based.
For assay [9], the system named is Candida albicans. Briefly: Fungicidal activity against Candida albicans. It is filed as functional, organism-based.
Assay [10] concerns Bacillus subtilis. Put plainly: Antibacterial activity against Bacillus subtilis after 24 hr by serial dilution technique. It is filed as functional.

`Nc1ccccc1C(=O)Oc1cccc2cccnc12`: the “-logMIC” value in the assay on Escherichia coli [1] amounted to 1.8; with Staphylococcus aureus [2] it was 1.93; in the assay on Aspergillus niger [3] it was 1.63; in the assay with Candida albicans [5], 1.63; in the assay on Bacillus subtilis [10], 1.93. In addition, the result in the assay with Aspergillus niger [4], in the assay with Staphylococcus aureus [6], in the assay on Bacillus subtilis [7], in the assay on Escherichia coli [8] and in the assay on Candida albicans [9] was Active.

On to `Cc1ccc(NC(=O)c2ccccc2N)c(C)c1`, for which the “-logMIC” value in the assay on Escherichia coli [1] came to 1.28; in the assay with Staphylococcus aureus [2], 1.28; in the assay with Aspergillus niger [3], 1.28; with Candida albicans [5], 1.28; with Bacillus subtilis [10] it was 2.19. The outcome with Aspergillus niger [4], with Staphylococcus aureus [6], in the assay with Bacillus subtilis [7], in the assay on Escherichia coli [8] and with Candida albicans [9] was Active.

On to `Cc1cccc(NC(=O)c2ccccc2N)c1`, for which the “-logMIC” value with Escherichia coli [1] is listed as 1.26; in the assay on Staphylococcus aureus [2] it was 1.26; with Aspergillus niger [3], 1.26; in the assay with Candida albicans [5], 1.26; with Bacillus subtilis [10] it was 2.16. For the same compound, the result in the assay with Aspergillus niger [4], in the assay on Staphylococcus aureus [6], in the assay on Bacillus subtilis [7], in the assay on Escherichia coli [8] and in the assay on Candida albicans [9] was Active.

Consider `Nc1ccccc1C(=O)Nc1ccccc1F`, for which the “-logMIC” value stood at 1.27 in the assay on Escherichia coli [1]; 1.27 with Staphylococcus aureus [2]; 1.27 in the assay on Aspergillus niger [3]; 1.27 with Candida albicans [5]; 2.17 in the assay on Bacillus subtilis [10]. In addition, the outcome with Aspergillus niger [4], with Staphylococcus aureus [6], in the assay with Bacillus subtilis [7], with Escherichia coli [8] and in the assay on Candida albicans [9] was Active.

With `CCOC(=O)c1ccccc1N` [ETHYL ANTHRANILATE], the “-logMIC” value was 1.72 in the assay with Escherichia coli [1]; 1.12 with Staphylococcus aureus [2]; 1.72 with Aspergillus niger [3]; 1.12 in the assay with Candida albicans [5]; 1.91 in the assay with Bacillus subtilis [10]. The outcome in the assay on Aspergillus niger [4], in the assay on Staphylococcus aureus [6], with Bacillus subtilis [7], in the assay on Escherichia coli [8] and with Candida albicans [9] was Active.

Consider `Nc1ccccc1C(=O)Nc1ccc2ccccc2c1`, for which the “-logMIC” value in the assay with Escherichia coli [1] was 1.62; in the assay on Staphylococcus aureus [2], 1.32; with Aspergillus niger [3], 1.62; in the assay with Candida albicans [5] it was 1.32; in the assay on Bacillus subtilis [10] it was 2.23. The result with Aspergillus niger [4], in the assay with Staphylococcus aureus [6], in the assay with Bacillus subtilis [7], with Escherichia coli [8] and in the assay on Candida albicans [9] was Active.
